Measurements from patent publication US10253002B2, “Compounds and methods of treating infections” (Neoculi Pty Ltd., priority 2013, dated 2019).
Values after ≈ are worked out from the molar mass of the structure shown. Values joined by “and” are separate entries in the source; they are usually repeats but may differ in a detail not shown here. Equal values may be shown once.

How the values were obtained:
[1] = system: Escherichia coli; assay: Broth microdilution MIC, Example 7 (NCL812 and analogues); format: cell-based; details: E. coli ATCC25922, 24 hours
[2] = system: Pseudomonas aeruginosa; assay: as above; format: cell-based; details: Pseudomonas #008, 24 hours
[3] = system: S. aureus ATCC29213; assay: Broth microdilution MIC, Example 7 (NCL analogues), Table 42; format: cell-based, Staphylococcus aureus; details: S. aureus ATCC29213, 24 hours
[4] = system: E. faecalis #32; assay: as above; format: cell-based, Enterococcus faecalis; details: E. faecalis #32, 24 hours
[5] = system: S. aureus isolates (HA-MRSA, CA-MRSA, methicillin-susceptible staphylococci); assay: Kirby-Bauer disc diffusion resistotyping, Example 4; format: cell-based, Staphylococcus aureus; details: for Total isolates resistant (Kirby-Bauer disc diffusion): all isolates (n = 30)
Method: Antibiotic-susceptibility profiling of the isolate collection was undertaken using Kirby-Bauer disc diffusion, as recommended by the Clinical and Laboratory Standards Institute (CLSI) on Mueller-Hinton agar. Isolates were grown overnight on SBA at 37° C. Colonies were suspended in physiological saline. Turbidity was adjusted to a 0.5 McFarland standard and suspensions were spread over the medium. Antibiotic discs according to Table 9 below were transferred onto the inoculated medium and analysed after 24 h incubation at 37° C.

[6] = system: S. pneumoniae isolates; assay: Disk diffusion susceptibility (CLSI/EUCAST), Example 5; format: cell-based, Streptococcus pneumoniae
In short: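 Susceptibility to 12 antimicrobials was categorised (S/I/R) using CLSI breakpoints from zones of complete inhibition, read thrice to the nearest millimetre with the mode taken. Incubation was 16–24 h, 37 °C, 5% CO2.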

[7] = system: Staphylococcus aureus T3-129 / Staphylococcus spp. MK1; assay: Synergy studies, checkerboard method (FIC index); format: cell-based; details: for FICI: FIC index of antibiotic with NCL812; for Result (interaction with NCL812): antibiotic with NCL812
[8] = Methicillin-susceptible staphylococci (n = 10)

## CC(Nc1cc(Cl)nc(N)n1)c1ccccc1 (centres unmarked) [NCL 182]
[1]
  MIC (μg/ml) at 24 hours E. coli ATCC25922: >64 µg/mL
[2]
  MIC (μg/ml) at 24 hours Pseudomonas #008: >64 µg/mL
[3]
  MIC (μg/ml) at 24 hours S. aureus ATCC29213: >64 µg/mL
[4]
  MIC (μg/ml) at 24 hours E. faecalis #32: >64 µg/mL

## CC(Nc1cc(NC(C)c2ccccc2)ncn1)c1ccccc1 (centres unmarked) [NCL 183]
[1]
  MIC (μg/ml) at 24 hours E. coli ATCC25922: >64 µg/mL
[2]
  MIC (μg/ml) at 24 hours Pseudomonas #008: >64 µg/mL
[3]
  MIC (μg/ml) at 24 hours S. aureus ATCC29213: >64 µg/mL
[4]
  MIC (μg/ml) at 24 hours E. faecalis #32: >64 µg/mL

## CC(Nc1cc(NC(C)c2ccccc2)nc(N)n1)c1ccccc1 (centres unmarked) [NCL 184]
[1]
  MIC (μg/ml) at 24 hours E. coli ATCC25922: >64 µg/mL
[2]
  MIC (μg/ml) at 24 hours Pseudomonas #008: >64 µg/mL
[3]
  MIC (μg/ml) at 24 hours S. aureus ATCC29213: >64 µg/mL
[4]
  MIC (μg/ml) at 24 hours E. faecalis #32: 64 µg/mL (≈ 192 µM)

## C/C(=N\Nc1cc(N/N=C(\C)c2ccc(Cl)cc2)ncn1)c1ccc(Cl)cc1.Cl [NCL 185]
[1]
  MIC (μg/ml) at 24 hours E. coli ATCC25922: >64 µg/mL
[2]
  MIC (μg/ml) at 24 hours Pseudomonas #008: >64 µg/mL
[3]
  MIC (μg/ml) at 24 hours S. aureus ATCC29213: >64 µg/mL
[4]
  MIC (μg/ml) at 24 hours E. faecalis #32: >64 µg/mL

## CC(Nc1cnc(NC(C)c2ccc(Cl)cc2)cn1)c1ccc(Cl)cc1 (centres unmarked) [NCL 186]
[1]
  MIC (μg/ml) at 24 hours E. coli ATCC25922: >64 µg/mL
[2]
  MIC (μg/ml) at 24 hours Pseudomonas #008: >64 µg/mL
[3]
  MIC (μg/ml) at 24 hours S. aureus ATCC29213: >64 µg/mL
[4]
  MIC (μg/ml) at 24 hours E. faecalis #32: >64 µg/mL

## CN(C)[C@@H]1C(O)=C(C(N)=O)C(=O)[C@@]2(O)C(O)=C3C(=O)c4c(O)cccc4[C@@](C)(O)[C@H]3C[C@@H]12 [Tetracycline]
[5]; CA-MRSA (n = 10)
  isolates resistant (Kirby-Bauer disc diffusion): 30.00%
[5]; HA-MRSA (n = 10)
  isolates resistant (Kirby-Bauer disc diffusion): 30.00%
[5]; [8]
  isolates resistant (Kirby-Bauer disc diffusion): 0.00%
[5]
  Total isolates resistant (Kirby-Bauer disc diffusion): 20.00%
[6]; A66.1
  disk diffusion zone diameter: 32 mm
[6]; D39
  disk diffusion zone diameter: 35 mm
[6]; EF3030
  disk diffusion zone diameter: 34 mm
[6]; L82016
  disk diffusion zone diameter: 32 mm
[6]; P9
  disk diffusion zone diameter: 32 mm
[6]; P21
  disk diffusion zone diameter: 38 mm
[6]; TIGR4
  disk diffusion zone diameter: 35 mm
[6]; WCH16
  disk diffusion zone diameter: 18 mm
[6]; WCH16 (Table 19)
  disk diffusion susceptibility category: R
[6]; WCH43
  disk diffusion zone diameter: 31 mm
[6]; WCH46
  disk diffusion zone diameter: 30 mm
[6]; WCH57
  disk diffusion zone diameter: 48 mm
[6]; WCH77
  disk diffusion zone diameter: 39 mm
[6]; WCH86
  disk diffusion zone diameter: 31 mm
[6]; WCH89
  disk diffusion zone diameter: 35 mm
[6]; WCH92
  disk diffusion zone diameter: 29 mm
[6]; WCH137
  disk diffusion zone diameter: 37 mm
[6]; WCH158
  disk diffusion zone diameter: 35 mm
[6]; WCH184
  disk diffusion zone diameter: 11 mm
[6]; WCH184 (Table 19)
  disk diffusion susceptibility category: R
[6]; WCH211
  disk diffusion zone diameter: 36-37 mm
[6]; WU2
  disk diffusion zone diameter: 34 mm
[7]; S. aureus strain T3-29
  FICI: 0.625 and 0.75 and 0.62
  Antibiotic MIC Alone: 0.25 µg/mL and 0.5 µg/mL
  Result (interaction with NCL812): NE (No effect (NE) was defined as 0.5<FICI<4)

## Gentamicin
[5]; CA-MRSA (n = 10)
  isolates resistant (Kirby-Bauer disc diffusion): 0.00%
[5]; HA-MRSA (n = 10)
  isolates resistant (Kirby-Bauer disc diffusion): 20.00%
[5]; [8]
  isolates resistant (Kirby-Bauer disc diffusion): 0.00%
[5]
  Total isolates resistant (Kirby-Bauer disc diffusion): 20.00%
[7]; Staphylococcus spp. Strain MK1
  FICI: 0.625 and 0.75 and 0.515
  Antibiotic MIC Alone: 1 µg/mL and 0.5 µg/mL
  Result (interaction with NCL812): NE (No effect (NE) was defined as 0.5<FICI<4)
